Assay results reported in PubChem BioAssay (NCI).
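Cultured in 96-well plates, cells were exposed to test compound for 48 hours across five concentrations. TGI denotes the concentration required for complete inhibition of growth.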

How the values were obtained:
Assay in all cases: NCI tumour cell line growth inhibition, 48 h
HL-60(TB) leukemia = tested on: HL-60(TB) leukemia
HCT-15 colon = tested on: HCT-15 colon
OVCAR-3 ovarian = tested on: OVCAR-3 ovarian
COLO 205 colon = tested on: COLO 205 colon
M14 melanoma = tested on: M14 melanoma
TK-10 renal = tested on: TK-10 renal
A498 renal = tested on: A498 renal
HOP-62 NSCLC = tested on: HOP-62 NSCLC
SK-OV-3 ovarian = tested on: SK-OV-3 ovarian
NCI-H23 lung = tested on: NCI-H23 lung
SNB-75 CNS = tested on: SNB-75 CNS
LOX IMVI melanoma = tested on: LOX IMVI melanoma
SNB-78 CNS = tested on: SNB-78 CNS
HT29 colon = tested on: HT29 colon
SF-295 CNS = tested on: SF-295 CNS
SK-MEL-28 melanoma = tested on: SK-MEL-28 melanoma
U251 CNS = tested on: U251 CNS
SR leukemia = tested on: SR leukemia
CCRF-CEM leukemia = tested on: CCRF-CEM leukemia
DU-145 prostate = tested on: DU-145 prostate

## CN1C(=O)CSC1=S
HL-60(TB) leukemia
  TGI: > 100 µM
HCT-15 colon
  TGI: > 100 µM
OVCAR-3 ovarian
  TGI: > 100 µM
COLO 205 colon
  TGI: > 100 µM
M14 melanoma
  TGI: > 100 µM
TK-10 renal
  TGI: > 100 µM
A498 renal
  TGI: > 100 µM
HOP-62 NSCLC
  TGI: > 100 µM
SK-OV-3 ovarian
  TGI: > 100 µM
NCI-H23 lung
  TGI: > 100 µM
SNB-75 CNS
  TGI: > 100 µM
LOX IMVI melanoma
  TGI: > 100 µM
SNB-78 CNS
  TGI: > 100 µM
HT29 colon
  TGI: > 100 µM
SF-295 CNS
  TGI: > 100 µM
SK-MEL-28 melanoma
  TGI: > 100 µM
U251 CNS
  TGI: > 100 µM
SR leukemia
  TGI: > 100 µM
CCRF-CEM leukemia
  TGI: > 100 µM

## COc1ccc(/C(Cl)=C(\C=O)c2ccc(OC)c(OC)c2)cc1
HL-60(TB) leukemia
  TGI: > 100 µM
HCT-15 colon
  TGI: > 100 µM
OVCAR-3 ovarian
  TGI: > 100 µM
COLO 205 colon
  TGI: > 100 µM
M14 melanoma
  TGI: > 100 µM
TK-10 renal
  TGI: > 100 µM
A498 renal
  TGI: 98.8 µM
SK-OV-3 ovarian
  TGI: > 100 µM
NCI-H23 lung
  TGI: > 100 µM
SNB-75 CNS
  TGI: 58.7 µM
LOX IMVI melanoma
  TGI: > 100 µM
SNB-78 CNS
  TGI: > 100 µM
HT29 colon
  TGI: > 100 µM
SF-295 CNS
  TGI: > 100 µM
SK-MEL-28 melanoma
  TGI: > 100 µM
U251 CNS
  TGI: > 100 µM
CCRF-CEM leukemia
  TGI: > 100 µM

## CC(=O)O/C(=C1\C[C@H]2[C@@H]3CC=C4C[C@@H](OC(C)=O)CC[C@]4(C)[C@H]3CC[C@]2(C)C1=O)C(F)(F)F
HL-60(TB) leukemia
  TGI: 13.6 µM
HCT-15 colon
  TGI: 17.6 µM
OVCAR-3 ovarian
  TGI: 21.2 µM
COLO 205 colon
  TGI: 25.7 µM
M14 melanoma
  TGI: 15.2 µM
TK-10 renal
  TGI: 32.4 µM
A498 renal
  TGI: 45.1 µM
DU-145 prostate
  TGI: 25.2 µM
HOP-62 NSCLC
  TGI: 32.8 µM
SK-OV-3 ovarian
  TGI: 44.5 µM
NCI-H23 lung
  TGI: 18.3 µM
SNB-75 CNS
  TGI: 47.4 µM
LOX IMVI melanoma
  TGI: 5.17 µM
HT29 colon
  TGI: 29.2 µM
SF-295 CNS
  TGI: 35.9 µM
SK-MEL-28 melanoma
  TGI: 31.9 µM
U251 CNS
  TGI: 17.7 µM
SR leukemia
  TGI: 10.9 µM
CCRF-CEM leukemia
  TGI: 13.9 µM

## COc1ccc(CC2c3cc(OC)c(OC)cc3CC[N+]2(C)C)cc1OC (centres undefined)
HL-60(TB) leukemia
  TGI: > 100 µM
HCT-15 colon
  TGI: > 100 µM
OVCAR-3 ovarian
  TGI: > 100 µM
COLO 205 colon
  TGI: > 100 µM
TK-10 renal
  TGI: > 100 µM
A498 renal
  TGI: > 100 µM
DU-145 prostate
  TGI: > 100 µM
SK-OV-3 ovarian
  TGI: > 100 µM
NCI-H23 lung
  TGI: > 100 µM
SNB-75 CNS
  TGI: > 100 µM
LOX IMVI melanoma
  TGI: > 100 µM
HT29 colon
  TGI: > 100 µM
SF-295 CNS
  TGI: > 100 µM
SK-MEL-28 melanoma
  TGI: > 100 µM
U251 CNS
  TGI: > 100 µM
CCRF-CEM leukemia
  TGI: > 100 µM

## COc1cccc2cc(C(=O)O)c(=O)oc12
HL-60(TB) leukemia
  TGI: > 100 µM
HCT-15 colon
  TGI: > 100 µM
OVCAR-3 ovarian
  TGI: > 100 µM
COLO 205 colon
  TGI: > 100 µM
M14 melanoma
  TGI: > 100 µM
TK-10 renal
  TGI: > 100 µM
A498 renal
  TGI: > 100 µM
DU-145 prostate
  TGI: > 100 µM
HOP-62 NSCLC
  TGI: > 100 µM
NCI-H23 lung
  TGI: > 100 µM
SNB-75 CNS
  TGI: > 100 µM
LOX IMVI melanoma
  TGI: > 100 µM
HT29 colon
  TGI: > 100 µM
SF-295 CNS
  TGI: > 100 µM
SK-MEL-28 melanoma
  TGI: > 100 µM
U251 CNS
  TGI: > 100 µM
SR leukemia
  TGI: > 100 µM
CCRF-CEM leukemia
  TGI: > 100 µM

## COc1c(OC(C)=O)c(OC(C)=O)cc2c1-c1ccc(SC)c(=O)cc1C(NC(C)=O)CC2 (centres undefined)
HL-60(TB) leukemia
  TGI: 0.61 µM
HCT-15 colon
  TGI: > 97.5 µM
OVCAR-3 ovarian
  TGI: > 100 µM
COLO 205 colon
  TGI: 4.32 µM
M14 melanoma
  TGI: > 100 µM
TK-10 renal
  TGI: > 96.3 µM
A498 renal
  TGI: 56 µM
DU-145 prostate
  TGI: 4.12 µM
HOP-62 NSCLC
  TGI: > 100 µM
SK-OV-3 ovarian
  TGI: > 44 µM
NCI-H23 lung
  TGI: 28.7 µM
SNB-75 CNS
  TGI: 15.3 µM
LOX IMVI melanoma
  TGI: > 100 µM
SNB-78 CNS
  TGI: > 100 µM
HT29 colon
  TGI: > 100 µM
SF-295 CNS
  TGI: 21.3 µM
SK-MEL-28 melanoma
  TGI: > 100 µM
U251 CNS
  TGI: > 42.2 µM
SR leukemia
  TGI: > 100 µM
CCRF-CEM leukemia
  TGI: > 100 µM
